Measurements: US7655832B2, “Rapid-throughput teleost regeneration assay” (The State of Oregon Acting by and Through the State Board …, priority 2006, dated 2010)

Assays:
[1] = tested on: adult zebrafish caudal fin regeneration; test: Adult zebrafish caudal fin regeneration study; assay type: in vivo
Source text: The fish were transferred back to the tanks and were continuously exposed to vehicle or Beclomethasone until the end of the study. The exposure solutions were changed daily. The positive “hits” were of different chemical classes and using structure function analysis, a major cluster of compounds was identified as glucocorticoids (5 of the “hit” compounds). […] We selected glucocorticoids for further studies since this was the largest cluster of “hits”. […] This characteristic morphology occurs because the tissue lateral to the amputation plane continues to grow and partially collapses around the amputation plane. Since the adult fin regeneration model is more widely studied, it was important to determine if chemical “hits” identified in the larval screen would be predictive for the adult fin regeneration responses. Therefore, the regeneration response to glucocorticoids exposure on fin regeneration was also assessed in adult zebrafish.

[2] = tested on: zebrafish larvae caudal fin regeneration; test: Larval fin regeneration with exposure in distinct time windows post amputation; assay type: in vivo; conditions: 1 μM
Protocol: Once candidate agents have been determined to affect regeneration, a number of studies may be done. In one example, the IC50 of the candidate agent is determined using methods known in the art. In another example, a secondary screen is performed to aid in identification of a target of the candidate agent. This may be accomplished in many ways. For example, after amputation, the fin undergoes several stages of regeneration. In a first stage, cells migrate into the epithelial wound cap. In a second stage, the blastema differentiates within the wound cap. In a final stage, cells proliferate, leading to outgrowth of the new fin. Thus, by adding the candidate agent to the amputated teleost for short durations of time at different, defined, times after amputation, it is possible to identify which regenerative stage or stages are sensitive to the candidate agent. Specifically, agents present for 0 to 4 hours post amputation (hpa) would preferentially target epithelial wound cap formation. Agents present between 4 and 12 hpa may specifically target blastema formation, and agents present between 12 and 24 hpa may preferentially target cellular differentiation. Finally, agents present between 24 hpa and 72 hpa would target the cellular proliferation stage.
Fertilized eggs were obtained from AB strain zebrafish (University of Oregon, Eugene, Oreg.) for all the experiments. […]

For `CCC(=O)OCC(=O)[C@@]1(OC(=O)CC)[C@@H](C)C[C@H]2[C@@H]3CCC4=CC(=O)C=C[C@]4(C)[C@@]3(Cl)[C@@H](O)C[C@@]21C` [Beclomethasone, Beclomethasone dipropionate], the “adult caudal fin regeneration” value ([1]; 0.005 mg/L waterborne, one day pre-exposure then continuous exposure) was “completely inhibited”, the “new tissue in the adult fin” value ([1]; at 5 dpa) was “essentially no new tissue” and the “larval fin regeneration, exposure for four hours immediately following amputation” value ([2]; 0-4 hpa) was “failed to regenerate”. The “larval fin regeneration, exposure beginning at 4 hpa” value ([2]; from 4 hpa continuously until 3 dpa) was “completely regenerated their fins”.
